# Where two headings read alike, the source gives them in different places.
# Experiments:
# Pharmacokinetics in mice = type: in vivo, BALB/c hairy mice; details: for concentration at 0.1 h: 0.10 h; for half-life: read-out: t½ (converted); for bioavailability: po, read-out: F (oral bioavailability)
# Experimental: Pharmacokinetics. The pharmacokinetics of CDDD11-8 was determined in mice after single oral (PO) and intravenous (IV) doses. CDDD11-8 was administered at a dose of 10 or 100 mg/kg PO or 2 mg/kg IV to BALB/c hairy mice (n = 10 per route of administration; both male and female). The IV dose consisted of CDDD11-8 dissolved in 10/90 N-methyl-2-pyrrolidone (NMP)/acetate buffer (pH 4.5), while the PO doses of CDDD11-8 were dissolved in acetate buffer at pH 4.74. At nominal times, up to three blood samples were collected from individual mice at non-consecutive times from the right cheek, left cheek, and heart of an individual mouse. The concentrations in these samples were measured by validated LC-MS/MS methods (limit of quantification = 5 ng/mL). Pharmacokinetic parameters were estimated after fitting compartmental models to the concentration–time data (Phoenix, Certara, NJ, USA). Specifically, a one-compartmental kinetic model with first-order input was used after an oral dose, and a two-compartmental model was fitted to the IV data. Acceptability of models was evaluated from values for Akaike Information Criterion (AIC), Schwarz’s Bayesian Criterion (SIB), and % Coefficient of Variance (CV) for parameters, where lower values were indicative of a better fit. Other considerations were variances in the concentrations of quality control samples and visual inspection of model fit. Oral bioavailability (F) was calculated from values of AUC after PO and IV administration after correcting for the differences in doses.
# [1] = Aqueous solubility by turbidimetric method; type: physicochemical; details: aqueous medium (not further specified), kinetic from dmso stock
# [2] = both sexes, BALB/c hairy, mouse, plasma, IV 2 mg/kg, read-out: Plasma Conc.
# [3] = both sexes, BALB/c hairy, mouse, plasma, IV 2 mg/kg, ± standard error of the estimate
# [4] = both sexes, BALB/c hairy, mouse, plasma, PO 10 mg/kg, read-out: Plasma Conc.
# [5] = both sexes, BALB/c hairy, mouse, plasma, PO 100 mg/kg, read-out: Plasma Conc.
# [6] = both sexes, BALB/c hairy, mouse, plasma, oral 10 mg/kg, ± standard error of the estimate
# [7] = both sexes, BALB/c hairy, mouse, plasma, oral 100 mg/kg, ± standard error of the estimate
smiles,measurement,setting,value
Cc1cnc(N[C@H]2CC[C@H](N)CC2)nc1-c1cnc2ccc(-c3ccccc3)cn12 [CDDD11-8],oral bioavailability predicted from hepatic extraction,Pharmacokinetics in mice,about 43%
same,plasma exposure after 100 mg/kg PO relative to 10 mg/kg,Pharmacokinetics in mice,19 times
same,plasma exposure,Pharmacokinetics in mice; PO 10 mg/kg,3.4 µM·h
same,plasma exposure,Pharmacokinetics in mice; PO 100 mg/kg,64 µM·h
same,extraction by the liver,Pharmacokinetics in mice; blood clearance vs hepatic blood flow 5.4 L/h.kg,~57%
same,clearance,"Pharmacokinetics in mice; both sexes, BALB/c hairy, mouse, IV 2 mg/kg, plasma, ± standard error of the estimate, read-out: CL (converted)",36.8 mL/min/kg
same,concentration at 0.03 h,"Pharmacokinetics in mice; both sexes, BALB/c hairy, mouse, plasma, IV 2 mg/kg, 0.03 h, read-out: Plasma Conc.",2290 ng/mL
same,concentration at 0.07 h,"Pharmacokinetics in mice; both sexes, BALB/c hairy, mouse, plasma, IV 2 mg/kg, 0.07 h, read-out: Plasma Conc.",2150 ng/mL
same,concentration at 0.1 h,Pharmacokinetics in mice; [2],1310 ng/mL
same,concentration at 0.17 h,"Pharmacokinetics in mice; both sexes, BALB/c hairy, mouse, plasma, IV 2 mg/kg, 0.17 h, read-out: Plasma Conc.",1070 ng/mL
same,concentration at 0.2 h,"Pharmacokinetics in mice; both sexes, BALB/c hairy, mouse, plasma, IV 2 mg/kg, 0.20 h, read-out: Plasma Conc.",1020 ng/mL
same,concentration at 0.3 h,"Pharmacokinetics in mice; both sexes, BALB/c hairy, mouse, plasma, IV 2 mg/kg, 0.30 h, read-out: Plasma Conc.",781 ng/mL
same,concentration at 0.53 h,"Pharmacokinetics in mice; both sexes, BALB/c hairy, mouse, plasma, IV 2 mg/kg, 0.53 h, read-out: Plasma Conc.",367 ng/mL
same,concentration at 0.68 h,"Pharmacokinetics in mice; both sexes, BALB/c hairy, mouse, plasma, IV 2 mg/kg, 0.68 h, read-out: Plasma Conc.",271 ng/mL
same,concentration at 1.4 h,"Pharmacokinetics in mice; both sexes, BALB/c hairy, mouse, plasma, IV 2 mg/kg, 1.4 h, read-out: Plasma Conc.",132 ng/mL
same,concentration at 2.1 h,"Pharmacokinetics in mice; both sexes, BALB/c hairy, mouse, plasma, IV 2 mg/kg, 2.1 h, read-out: Plasma Conc.",50 ng/mL
same,concentration at 3.4 h,"Pharmacokinetics in mice; both sexes, BALB/c hairy, mouse, plasma, IV 2 mg/kg, 3.4 h, read-out: Plasma Conc.",20 ng/mL
same,concentration at 4.1 h,"Pharmacokinetics in mice; both sexes, BALB/c hairy, mouse, plasma, IV 2 mg/kg, 4.1 h, read-out: Plasma Conc.",11 ng/mL
same,concentration at 5.4 h,Pharmacokinetics in mice; [2],3 ng/mL
same,concentration at 6 h,"Pharmacokinetics in mice; both sexes, BALB/c hairy, mouse, plasma, IV 2 mg/kg, 6 h, read-out: Plasma Conc.",3.2 ng/mL
same,concentration at 7 h,"Pharmacokinetics in mice; both sexes, BALB/c hairy, mouse, plasma, IV 2 mg/kg, 7 h, read-out: Plasma Conc.",2.4 ng/mL
same,concentration at 7.7 h,"Pharmacokinetics in mice; both sexes, BALB/c hairy, mouse, plasma, IV 2 mg/kg, 7.7 h, read-out: Plasma Conc.",2.8 ng/mL
same,concentration at 8 h,"Pharmacokinetics in mice; both sexes, BALB/c hairy, mouse, plasma, IV 2 mg/kg, 8 h, read-out: Plasma Conc.",2.8 ng/mL
same,concentration at 8.8 h,"Pharmacokinetics in mice; both sexes, BALB/c hairy, mouse, plasma, IV 2 mg/kg, 8.8 h, read-out: Plasma Conc.",2 ng/mL
same,concentration at 9.5 h,"Pharmacokinetics in mice; both sexes, BALB/c hairy, mouse, plasma, IV 2 mg/kg, 9.5 h, read-out: Plasma Conc.",1.7 ng/mL
same,AUC,Pharmacokinetics in mice; [3],906 ± 90 ng·h/mL
same,Vd,"Pharmacokinetics in mice; both sexes, BALB/c hairy, mouse, plasma, IV 2 mg/kg, ± standard error of the estimate, read-out: Vss",1.71 ± 0.246 L/kg
same,half-life,Pharmacokinetics in mice; [3],108 ± 18 min
same,concentration at 0.13 h,"Pharmacokinetics in mice; both sexes, BALB/c hairy, mouse, plasma, PO 10 mg/kg, 0.13 h, read-out: Plasma Conc.",140 ng/mL
same,concentration at 0.28 h,"Pharmacokinetics in mice; both sexes, BALB/c hairy, mouse, plasma, PO 10 mg/kg, 0.28 h, read-out: Plasma Conc.",300 ng/mL
same,concentration at 0.4 h,"Pharmacokinetics in mice; both sexes, BALB/c hairy, mouse, plasma, PO 10 mg/kg, 0.40 h, read-out: Plasma Conc.",139 ng/mL
same,concentration at 0.65 h,"Pharmacokinetics in mice; both sexes, BALB/c hairy, mouse, plasma, PO 10 mg/kg, 0.65 h, read-out: Plasma Conc.",389 ng/mL
same,concentration at 1.2 h,Pharmacokinetics in mice; [4],740 ng/mL
same,concentration at 1.9 h,Pharmacokinetics in mice; [4],356 ng/mL
same,concentration at 2.6 h,Pharmacokinetics in mice; [4],450 ng/mL
same,concentration at 3.3 h,"Pharmacokinetics in mice; both sexes, BALB/c hairy, mouse, plasma, PO 10 mg/kg, 3.3 h, read-out: Plasma Conc.",95 ng/mL
same,concentration at 4 h,"Pharmacokinetics in mice; both sexes, BALB/c hairy, mouse, plasma, PO 10 mg/kg, 4.0 h, read-out: Plasma Conc.",169 ng/mL
same,concentration at 4.7 h,"Pharmacokinetics in mice; both sexes, BALB/c hairy, mouse, plasma, PO 10 mg/kg, 4.7 h, read-out: Plasma Conc.",34 ng/mL
same,concentration at 5.4 h,Pharmacokinetics in mice; [4],17 ng/mL
same,concentration at 6.2 h,"Pharmacokinetics in mice; both sexes, BALB/c hairy, mouse, plasma, PO 10 mg/kg, 6.2 h, read-out: Plasma Conc.",20 ng/mL
same,concentration at 6.8 h,"Pharmacokinetics in mice; both sexes, BALB/c hairy, mouse, plasma, PO 10 mg/kg, 6.8 h, read-out: Plasma Conc.",3.4 ng/mL
same,concentration at 7.8 h,Pharmacokinetics in mice; [4],1.6 ng/mL
same,concentration at 8.5 h,"Pharmacokinetics in mice; both sexes, BALB/c hairy, mouse, plasma, PO 10 mg/kg, 8.5 h, read-out: Plasma Conc.",1.8 ng/mL
same,concentration at 9.7 h,"Pharmacokinetics in mice; both sexes, BALB/c hairy, mouse, plasma, PO 10 mg/kg, 9.7 h, read-out: Plasma Conc.",1 ng/mL
same,concentration at 15.8 h,"Pharmacokinetics in mice; both sexes, BALB/c hairy, mouse, plasma, PO 10 mg/kg, 15.8 h, read-out: Plasma Conc.",0 ng/mL
same,concentration at 21 h,"Pharmacokinetics in mice; both sexes, BALB/c hairy, mouse, plasma, PO 10 mg/kg, 21.0 h, read-out: Plasma Conc.",0 ng/mL
same,concentration at 24.6 h,Pharmacokinetics in mice; [4],0 ng/mL
same,concentration at 0.1 h,Pharmacokinetics in mice; [5],810 ng/mL
same,concentration at 0.38 h,"Pharmacokinetics in mice; both sexes, BALB/c hairy, mouse, plasma, PO 100 mg/kg, 0.38 h, read-out: Plasma Conc.",925 ng/mL
same,concentration at 0.73 h,"Pharmacokinetics in mice; both sexes, BALB/c hairy, mouse, plasma, PO 100 mg/kg, 0.73 h, read-out: Plasma Conc.",2660 ng/mL
same,concentration at 1.2 h,Pharmacokinetics in mice; [5],1810 ng/mL
same,concentration at 1.9 h,Pharmacokinetics in mice; [5],3010 ng/mL
same,concentration at 2.6 h,Pharmacokinetics in mice; [5],3680 ng/mL
same,concentration at 2.9 h,"Pharmacokinetics in mice; both sexes, BALB/c hairy, mouse, plasma, PO 100 mg/kg, 2.9 h, read-out: Plasma Conc.",2480 ng/mL
same,concentration at 4.9 h,"Pharmacokinetics in mice; both sexes, BALB/c hairy, mouse, plasma, PO 100 mg/kg, 4.9 h, read-out: Plasma Conc.",4830 ng/mL
same,concentration at 6.1 h,"Pharmacokinetics in mice; both sexes, BALB/c hairy, mouse, plasma, PO 100 mg/kg, 6.1 h, read-out: Plasma Conc.",2160 ng/mL
same,concentration at 7 h,"Pharmacokinetics in mice; both sexes, BALB/c hairy, mouse, plasma, PO 100 mg/kg, 7.0 h, read-out: Plasma Conc.",881 ng/mL
same,concentration at 7.8 h,Pharmacokinetics in mice; [5],717 ng/mL
same,concentration at 8.3 h,"Pharmacokinetics in mice; both sexes, BALB/c hairy, mouse, plasma, PO 100 mg/kg, 8.3 h, read-out: Plasma Conc.",1200 ng/mL
same,concentration at 8.9 h,"Pharmacokinetics in mice; both sexes, BALB/c hairy, mouse, plasma, PO 100 mg/kg, 8.9 h, read-out: Plasma Conc.",854 ng/mL
same,concentration at 9.6 h,"Pharmacokinetics in mice; both sexes, BALB/c hairy, mouse, plasma, PO 100 mg/kg, 9.6 h, read-out: Plasma Conc.",248 ng/mL
same,concentration at 16 h,"Pharmacokinetics in mice; both sexes, BALB/c hairy, mouse, plasma, PO 100 mg/kg, 16.0 h, read-out: Plasma Conc.",77 ng/mL
same,concentration at 22.1 h,"Pharmacokinetics in mice; both sexes, BALB/c hairy, mouse, plasma, PO 100 mg/kg, 22.1 h, read-out: Plasma Conc.",153 ng/mL
same,concentration at 24.6 h,Pharmacokinetics in mice; [5],74 ng/mL
same,concentration at 29 h,"Pharmacokinetics in mice; both sexes, BALB/c hairy, mouse, plasma, PO 100 mg/kg, 29.0 h, read-out: Plasma Conc.",62 ng/mL
same,concentration at 41.2 h,"Pharmacokinetics in mice; both sexes, BALB/c hairy, mouse, plasma, PO 100 mg/kg, 41.2 h, read-out: Plasma Conc.",0 ng/mL
same,Vd,"Pharmacokinetics in mice; both sexes, BALB/c hairy, mouse, plasma, intravenous, 2 mg/kg, read-out: volume of distribution",1.71 L/kg
same,AUC,Pharmacokinetics in mice; [6],1360 ± 249 ng·h/mL
same,Cmax,Pharmacokinetics in mice; [6],496 ± 108 ng/mL
same,Tmax,Pharmacokinetics in mice; [6],1 ± 0.1 h
same,half-life,Pharmacokinetics in mice; [6],40.8 ± 18 min
same,AUC,Pharmacokinetics in mice; [7],25400 ng·h/mL
same,Cmax,Pharmacokinetics in mice; [7],3600 ± 822 ng/mL
same,Tmax,Pharmacokinetics in mice; [7],2 ± 0.6 h
same,half-life,Pharmacokinetics in mice; [7],408 ± 222 min
same,bioavailability,"Pharmacokinetics in mice; both sexes, BALB/c hairy, mouse, plasma, 10 mg/kg, oral 10 mg/kg",~30%
same,bioavailability,"Pharmacokinetics in mice; both sexes, BALB/c hairy, mouse, plasma, 100 mg/kg, oral 100 mg/kg",56%
same,clearance,"Pharmacokinetics in mice; both sexes, BALB/c hairy, mouse, whole blood, intravenous, 2 mg/kg, plasma clearance divided by B/P, read-out: blood clearance (converted)",51.7 mL/min/kg
same,solubility,[1],> 100 µM

# — article PMC8909834, “An Orally Bioavailable and Highly Efficacious Inhibitor of CDK9/FLT3 for the Treatment of Acute Myeloid Leukemia” (Cancers, 2022)
